{
  "source": "patent US12606543B2",
  "about": "“Indole derivatives as serotonergic agents useful for the treatment of disorders related thereto” (priority 2023, dated 2026)",
  "key": {"[1]": {"assay": "Plasma protein binding by equilibrium dialysis, mouse", "assay_type": "in vitro ADME", "details": "mouse plasma, 6 hours", "description": "(§1) The final concentration of compound was 1 μM. The final concentration of DMSO was 0.5%. Ketoconazole was used as positive control in the assay.\n(§2) The assay was performed in duplicate.\n(§3) All calculations were carried out using Microsoft Excel. […] The percentages of bound compound were calculated as follows: […]\n(§4) Ketoconazole was used as positive control in the assay."}, "[2]": {"assay": "Pharmacokinetic studies in rat (i.v.)", "assay_type": "in vivo", "details": "male, Sprague-Dawley, plasma; for concentration at 0.25 h / concentration at 1 h / concentration at 4 h: intravenous, dose per Dose column (1.32-2.09 mg/kg); for half-life / AUC(0-t): iv, rat plasma, i.v., dose per Dose column; for half-life: estimated from 2 points only", "description": "Animals: Male Sprague-Dawley rats (˜225-350 g) from Charles River Labs were acclimatized for a minimum of 5 days prior to start of study procedures. Body weights were recorded on the day of dosing.\nAny abnormalities were documented including presence/absence of wet dog shakes/back muscle contractions (WDS/BMC).\nDosing: Formulations were administered intravenously (i.v.) via the tail vein using a 25 G needle connected to a 1 cc syringe.\nThe exemplary compounds of Formula (I) were freshly prepared at the appropriate concentrations in 5% Tween-80 in saline.\nBlood collection time (h): 0, […], 1 and 4\nVolume/time-point: ˜0.25 mL (saphenous vein)\nInstrumentation: AB Sciex QTRAP 4000 or 6500 MS/MS system equipped with an LC system with a binary pump, a solvent degasser, a thermostated column compartment, and a multiplate autosampler.\nAnalysis software: Phoenix® WinNonlin® 8.3 (Pharsight, Certara, Mountainview, CA).\nAnalysis methods: non-compartmental analysis, linear up/log down trapezoidal rule.\nPK parameters: t1/2 and AUC0-tlast was estimated.\nThe Compounds of Formula (I) were freshly prepared at the appropriate concentrations in 5% Tween-80 in saline.\nInstrumentation: AB Sciex QTRAP 4000 or 6500 MS/MS system equipped with an LC system with a binary pump, a solvent degasser, a thermostated column compartment and a multiplate autosampler.\nPK parameters: t1/2 and AUC0-tlast will be estimated."}, "[3]": {"assay": "Plasma protein binding by equilibrium dialysis, dog", "assay_type": "in vitro ADME", "details": "dog plasma, 6 hours", "description": "as §1, §2, §3, §4"}, "[4]": {"assay": "Plasma protein binding by equilibrium dialysis, rat", "description": "1. The Frozen Plasma (Stored at −80° C.) was Thawed Immediately in a 37° C. Water Bath.\n(§5) The working solution of test compounds and control compound was prepared in DMSO at the concentration of 200 μM, and then the working solution was spiked into plasma. The final concentration of compound was 1 μM. The final concentration of DMSO was 0.5%. Ketoconazole was used as positive control in the assay.\nThe dialysis membranes were soaked in ultrapure water for 60 minutes to separate strips, then in 20% ethanol for 20 minutes, finally in dialysis buffer for 20 minutes.\nThe dialysis set up was assembled according to the manufacturer's instruction. Each Cell was with 150 μL of plasma sample and dialyzed against equal volume of dialysis buffer (PBS). The assay was performed in duplicate. The dialysis plate was sealed and incubated in an incubator at 37° C. with 5% CO2 at 100 rpm for 6 hours. At the end of incubation, 50 μL of samples from both buffer and plasma chambers were transferred to wells of a 96-well plate.\n50 μL of plasma was added to each buffer samples and an equal volume of PBS was supplemented to the collected plasma sample. 400 μL of precipitation buffer acetonitrile containing internal standards (IS, 200 nM labetalol, 100 nM tolbutamide and 100 nM ketoprofen) was added to precipitate protein and release compounds. Samples were vortexed for 2 minutes and centrifuged for 30 minutes at 3,220 g. Aliquot of 50 μL of the supernatant was diluted by 150 μL acetonitrile containing internal standards: ultra-pure H2O=1:1, and the mixture was used for LC-MS/MS analysis.\nAll calculations were carried out using Microsoft Excel. The concentrations of test compounds in the buffer and plasma chambers were determined from peak area ratios. The percentages of bound compound were calculated as follows: […]\nas §5, with “[…].” for “μM.”"}, "[5]": {"details": "first animal (R07/R04/R01/R10), read-out: Plasma concentration"}, "[6]": {"details": "mean of 3 rats, read-out: Plasma concentration, Mean ± SD"}, "[7]": {"details": "second animal (R08/R05/R02/R11), read-out: Plasma concentration"}, "[8]": {"details": "third animal (R09/R06/R03/R12), read-out: Plasma concentration"}},
  "note": "Like-named read-outs stand apart in the source and are kept apart here.",
  "data": [
    {"smiles": "[2H]C([2H])(c1c[nH]c2ccc(OCCCCN3C(=O)c4ccccc4C3=O)cc12)[C@H]1CCCN1C([2H])([2H])[2H]", "note": "[(R) I-244, (R)-2-(4-((3-((1-(Methyl-d3)pyrrolidin-2-yl)methyl-d2)-1H-indol-5-yl)oxy)butyl)isoindoline-1,3-dione]", "values": [
      {"measurement": "recovery at 6 h, 1 µM", "setting": "[1]; CD-1, mouse, plasma, equilibrium dialysis, 37° C.", "result": 84.8, "unit": "%"},
      {"measurement": "fraction unbound at 6 h, 1 μM", "setting": "[1]; CD-1, equilibrium dialysis, 37° C., read-out: % Bound (converted)", "result": 0.101},
      {"measurement": "% Remaining @ 6 hours", "setting": "[1]", "result": 94.96, "unit": "%"},
      {"measurement": "concentration at 0.25 h", "setting": "[2]; [5]", "result": 252, "unit": "ng/mL"},
      {"measurement": "concentration at 0.25 h", "setting": "[2]; [6]", "result": "292 ± 59.4", "unit": "ng/mL"},
      {"measurement": "concentration at 0.25 h", "setting": "[2]; [7]", "result": 360, "unit": "ng/mL"},
      {"measurement": "concentration at 0.25 h", "setting": "[2]; [8]", "result": 263, "unit": "ng/mL"},
      {"measurement": "concentration at 1 h", "setting": "[2]; [5]", "result": 132, "unit": "ng/mL"},
      {"measurement": "concentration at 1 h", "setting": "[2]; [6]", "result": "130 ± 21.6", "unit": "ng/mL"},
      {"measurement": "concentration at 1 h", "setting": "[2]; [7]", "result": 150, "unit": "ng/mL"},
      {"measurement": "concentration at 1 h", "setting": "[2]; [8]", "result": 107, "unit": "ng/mL"},
      {"measurement": "concentration at 4 h", "setting": "[2]; [5]", "result": 20.7, "unit": "ng/mL"},
      {"measurement": "concentration at 4 h", "setting": "[2]; [6]", "result": "22 ± 1.63", "unit": "ng/mL"},
      {"measurement": "concentration at 4 h", "setting": "[2]; [7]", "result": 23.8, "unit": "ng/mL"},
      {"measurement": "concentration at 4 h", "setting": "[2]; [8]", "result": 21.4, "unit": "ng/mL"},
      {"measurement": "half-life", "setting": "[2]; first animal (R07/R04/R01/R10), read-out: Apparent t1/2 (converted)", "result": 1.06, "unit": "h"},
      {"measurement": "half-life", "setting": "[2]; mean of 3 rats, read-out: Apparent t1/2, Mean ± SD (converted)", "result": "1.05 ± 0.0494", "unit": "h"},
      {"measurement": "half-life", "setting": "[2]; second animal (R08/R05/R02/R11), read-out: Apparent t1/2 (converted)", "result": 1, "unit": "h"},
      {"measurement": "half-life", "setting": "[2]; third animal (R09/R06/R03/R12), read-out: Apparent t1/2 (converted)", "result": 1.1, "unit": "h"},
      {"measurement": "AUC(0-t)", "setting": "[2]; first animal (R07/R04/R01/R10), read-out: AUC0-tlast", "result": 390, "unit": "ng·h/mL"},
      {"measurement": "AUC(0-t)", "setting": "[2]; mean of 3 rats, read-out: AUC0-tlast, Mean ± SD", "result": "415 ± 65.7", "unit": "ng·h/mL"},
      {"measurement": "AUC(0-t)", "setting": "[2]; second animal (R08/R05/R02/R11), read-out: AUC0-tlast", "result": 490, "unit": "ng·h/mL"},
      {"measurement": "AUC(0-t)", "setting": "[2]; third animal (R09/R06/R03/R12), read-out: AUC0-tlast", "result": 366, "unit": "ng·h/mL"},
      {"measurement": "recovery at 6 h, 1 µM", "setting": "[3]; Beagle, dog, equilibrium dialysis, 37° C.", "result": 94.6, "unit": "%"},
      {"measurement": "fraction unbound at 6 h, 1 μM", "setting": "[3]; Beagle, equilibrium dialysis, 37° C., read-out: % Bound (converted)", "result": 0.0281},
      {"measurement": "% Remaining @ 6 hours", "setting": "[3]", "result": 94.07, "unit": "%"},
      {"measurement": "fraction unbound at 6 h, 1 μM", "setting": "[4]; SD, rat, plasma", "result": 0.19},
      {"measurement": "recovery at 6 h, 1 µM", "setting": "[4]; Sprague-Dawley (SD), rat", "result": 86.5, "unit": "%"},
      {"measurement": "% Remaining @ 6 hours", "setting": "[4]; rat plasma, 6 hours", "result": 85.45, "unit": "%"}
    ]}
  ]
}
